Measurements: ChEMBL document CHEMBL2069259, “Preclinical strategy to reduce clinical hepatotoxicity using in vitro bioactivation data for >200 compounds” (Chem Res Toxicol, 2012)

Key:
Liver microsomes [1] = experiment: Metabolic stability in human liver microsomes assessed as GSH adduct formation at 100 uM after 90 mins by HPLC-MS analysis; details: 1.5 h
Liver microsomes [2] = experiment: Metabolic stability in human liver microsomes assessed as high signal/noise ratio (S/N of >100) by measuring GSH adduct formation at 100 uM after 90 mins by HPLC-MS analysis; details: 1.5 h

Compound	Stability (Liver microsomes [1])	Stability (Liver microsomes [2])
CC(C)(N)Cc1ccccc1 [PHENTERMINE]	Stable	–
O=C(O)[C@H]1/C(=C/CO)O[C@@H]2CC(=O)N21 [CLAVULANIC ACID]	–	Unstable
Cc1cc2c(s1)Nc1ccccc1N=C2N1CCN(C)CC1 [OLANZAPINE]	Stable	–
CC(CCc1ccccc1)NCC(O)c1ccc(O)c(C(N)=O)c1 (stereo not given) [LABETALOL]	Stable	–
CN(Cc1cnc2nc(N)nc(N)c2n1)c1ccc(C(=O)N[C@@H](CCC(=O)O)C(=O)O)cc1 [METHOTREXATE]	Stable	–
CCc1nn(CCCN2CCN(c3cccc(Cl)c3)CC2)c(=O)n1CCOc1ccccc1 [NEFAZODONE]	Stable	–
COc1cc(N)c(Cl)cc1C(=O)NC1CCN(CCCOc2ccc(F)cc2)CC1OC (stereo not given) [CISAPRIDE]	Stable	–
O=c1[nH]cnc2c1ncn2[C@H]1CC[C@@H](CO)O1 [DIDANOSINE]	Stable	–
Sc1ncnc2nc[nH]c12 [MERCAPTOPURINE ANHYDROUS]	–	Unstable
COc1ccc2c3c1O[C@H]1C(=O)CC[C@H]4[C@@H](C2)N(C)CC[C@]314 [HYDROCODONE]	Stable	–
NC(=O)OCC(COC(N)=O)c1ccccc1 [FELBAMATE]	Stable	–
O=P(O)(O)C(O)(Cc1cccnc1)P(=O)(O)O [RISEDRONIC ACID]	Stable	–
CO[C@H]1C[C@H](O[C@H]2[C@H](C)[C@@H](O[C@@H]3O[C@H](C)C[C@H](N(C)C)[C@H]3OC(C)=O)[C@@H](C)C[C@@]3(CO3)C(=O)[C@H](C)[C@@H](OC(C)=O)[C@@H](C)[C@@H](C)OC(=O)[C@@H]2C)O[C@@H](C)[C@@H]1OC(C)=O [TROLEANDOMYCIN]	–	Unstable
CC[C@H]1OC(=O)[C@H](C)[C@@H](O[C@H]2C[C@@](C)(OC)[C@@H](O)[C@H](C)O2)[C@H](C)[C@@H](O[C@@H]2O[C@H](C)C[C@H](N(C)C)[C@H]2O)[C@](C)(O)C[C@@H](C)CN(C)[C@H](C)[C@@H](O)[C@]1(C)O [AZITHROMYCIN]	Stable	–
COc1ccccc1OCC(O)CO (stereo not given) [GUAIFENESIN]	Stable	–
CC[C@H]1OC(=O)[C@H](C)[C@@H](O[C@H]2C[C@@](C)(OC)[C@@H](O)[C@H](C)O2)[C@H](C)[C@@H](O[C@@H]2O[C@H](C)C[C@H](N(C)C)[C@H]2O)[C@](C)(O)C[C@@H](C)C(=O)[C@H](C)[C@@H](O)[C@]1(C)O [ERYTHROMYCIN]	Stable	–
C[C@@H]1C[C@H]2[C@@H]3CCC4=CC(=O)C=C[C@]4(C)[C@@]3(F)[C@@H](O)C[C@]2(C)[C@@]1(O)C(=O)CO [DEXAMETHASONE]	Stable	–
CC(O)(P(=O)(O)O)P(=O)(O)O [ETIDRONIC ACID]	Stable	–
CC(C)C[C@H](N)C(=O)O [LEUCINE]	Stable	–
NC(=O)N1c2ccccc2C=Cc2ccccc21 [CARBAMAZEPINE]	–	Unstable
OC(Cn1cncn1)(Cn1cncn1)c1ccc(F)cc1F [FLUCONAZOLE]	Stable	–
NCCC(O)(P(=O)(O)O)P(=O)(O)O [PAMIDRONIC ACID]	Stable	–
CCOC(=O)C1(c2ccccc2)CCN(C)CC1 [MEPERIDINE]	Stable	–
C[C@](N)(Cc1ccc(O)cc1)C(=O)O [METYROSINE]	Stable	–
C#CCN(C)[C@H](C)Cc1ccccc1 [SELEGILINE]	–	Unstable

Compound	Stability (Liver microsomes [1])	Stability (Liver microsomes [2])
CCC1(c2ccccc2)C(=O)NC(=O)NC1=O [PHENOBARBITAL]	Stable	–
Nc1cc(N2CCCCC2)nc(N)[n+]1[O-] [MINOXIDIL]	Unstable	–
Nc1ccn([C@@H]2O[C@H](CO)[C@@H](O)[C@@H]2O)c(=O)n1 [CYTARABINE]	Stable	–
Cc1cn([C@H]2C[C@H](N=[N+]=[N-])[C@@H](CO)O2)c(=O)[nH]c1=O [ZIDOVUDINE]	Stable	–
O=C(O)c1cc(=O)c2c(OCC(O)COc3cccc4oc(C(=O)O)cc(=O)c34)cccc2o1 [CROMOLYN]	Stable	–
CC1(C)NC(=O)N(c2ccc([N+](=O)[O-])c(C(F)(F)F)c2)C1=O [NILUTAMIDE]	Stable	–
CC(C)Cc1ccc(C(C)C(=O)O)cc1 (stereo not given) [IBUPROFEN]	Stable	–
C[C@]12CC[C@H]3[C@@H](CCC4=CC(=O)CC[C@@]43C)[C@@H]1CC[C@@H]2O [TESTOSTERONE]	Stable	–
CCN1CCN(C(=O)N[C@@H](C(=O)N[C@@H]2C(=O)N3C(C(=O)O)=C(CSc4nnnn4C)CS[C@H]23)c2ccc(O)cc2)C(=O)C1=O [CEFOPERAZONE]	Stable	–
Cc1cccc(Nc2ccncc2S(=O)(=O)NC(=O)NC(C)C)c1 [TORSEMIDE]	Stable	–
CN1CC[C@]23c4c5ccc(O)c4O[C@H]2C(=O)CC[C@@]3(O)[C@H]1C5 [OXYMORPHONE]	Stable	–
O=c1[nH]c(=O)n([C@H]2C[C@H](O)[C@@H](CO)O2)cc1F [FLOXURIDINE]	Stable	–
Cn1c(=O)c2c(ncn2C)n(C)c1=O [CAFFEINE]	Stable	–
CC1COc2c(N3CCN(C)CC3)c(F)cc3c(=O)c(C(=O)O)cn1c23 (stereo not given) [OFLOXACIN]	Stable	–
CCN(CC)CCCC(C)Nc1ccnc2cc(Cl)ccc12 (stereo not given) [CHLOROQUINE]	Stable	–
C[C@]12C=CC(=O)C=C1CC[C@H]1[C@@H]3C[C@@H](O)[C@](O)(C(=O)CO)[C@@]3(C)C[C@H](O)[C@@]12F [TRIAMCINOLONE]	Stable	–
CCN1CCCC1CNC(=O)c1cc(S(N)(=O)=O)ccc1OC (stereo not given) [SULPIRIDE]	Stable	–
CCN(CC)Cc1cc(Nc2ccnc3cc(Cl)ccc23)ccc1O.Cl	Unstable	–
C[C@H]1C[C@H]2[C@@H]3CCC4=CC(=O)C=C[C@]4(C)[C@@]3(Cl)[C@@H](O)C[C@]2(C)[C@@]1(O)C(=O)CO [BECLOMETHASONE]	Stable	–
CC(=O)[C@H]1CC[C@H]2[C@@H]3CCC4=CC(=O)CC[C@]4(C)[C@H]3CC[C@]12C [PROGESTERONE]	Stable	–
CCOC(=O)C(C)(C)Oc1ccc(Cl)cc1 [CLOFIBRATE]	Stable	–
NC(=O)c1cnccn1 [PYRAZINAMIDE]	Stable	–
C[C@H](N)[C@H](O)c1cccc(O)c1 [METARAMINOL]	Stable	–
CC/C(=C(\c1ccccc1)c1ccc(OCCN(C)C)cc1)c1ccccc1 [TAMOXIFEN]	Stable	–
CCCNC(=O)NS(=O)(=O)c1ccc(Cl)cc1 [CHLORPROPAMIDE]	Stable	–

Compound	Stability (Liver microsomes [1])	Stability (Liver microsomes [2])
C[C@H]1O[C@@H](O[C@H]2[C@@H](O)C[C@H](O[C@H]3[C@@H](O)C[C@H](O[C@H]4CC[C@@]5(C)[C@H](CC[C@@H]6[C@@H]5C[C@@H](O)[C@]5(C)[C@@H](C7=CC(=O)OC7)CC[C@]65O)C4)O[C@@H]3C)O[C@@H]2C)C[C@H](O)[C@@H]1O [DIGOXIN]	Stable	–
O=C1NC(=O)C(c2ccccc2)(c2ccccc2)N1 [PHENYTOIN]	Stable	–
NC(=O)C[S+]([O-])C(c1ccccc1)c1ccccc1 (stereo not given) [MODAFINIL]	Stable	–
CC(C)(O/N=C(\C(=O)N[C@@H]1C(=O)N2C(C(=O)[O-])=C(C[n+]3ccccc3)CS[C@H]12)c1csc(N)n1)C(=O)O [CEFTAZIDIME]	Stable	–
CN(C)CCCN1c2ccccc2Sc2ccc(Cl)cc21 [CHLORPROMAZINE]	Stable	–
CN(C)C(=O)Oc1cccc([N+](C)(C)C)c1.[Br-] [NEOSTIGMINE BROMIDE]	Stable	–
CN1CC[C@]23c4c5ccc(O)c4O[C@H]2C(=O)CC[C@H]3[C@H]1C5 [HYDROMORPHONE]	Stable	–
GENTAMICIN	Stable	–
CC(C)(C)NC(=O)[C@H]1CC[C@H]2[C@@H]3CC[C@H]4NC(=O)C=C[C@]4(C)[C@H]3CC[C@]12C [FINASTERIDE]	Stable	–
OCCOCCN1CCN(C(c2ccccc2)c2ccc(Cl)cc2)CC1 (stereo not given) [HYDROXYZINE]	Stable	–
O=C1CN(/N=C/c2ccc(-c3ccc([N+](=O)[O-])cc3)o2)C(O)=N1 [DANTROLENE]	Stable	–
CNCCCC12CCC(c3ccccc31)c1ccccc12 [MAPROTILINE]	Stable	–
Cc1ccccc1C(OCCN(C)C)c1ccccc1 (stereo not given) [ORPHENADRINE]	Stable	–
CN[C@@H](C)Cc1ccccc1 [METHAMPHETAMINE]	Stable	–
CCNC(=O)[C@@H]1CCCN1C(=O)[C@H](CCCNC(=N)N)NC(=O)[C@H](CC(C)C)NC(=O)[C@@H](CC(C)C)NC(=O)[C@H](Cc1ccc(O)cc1)NC(=O)[C@H](CO)NC(=O)[C@H](Cc1c[nH]c2ccccc12)NC(=O)[C@H](Cc1c[nH]cn1)NC(=O)[C@@H]1CCC(=O)N1 [LEUPROLIDE]	Stable	–
Oc1ncnc2[nH]ncc12 [ALLOPURINOL]	Stable	–
CCN1CCC[C@H]1CNC(=O)c1c(OC)ccc(Br)c1OC [REMOXIPRIDE]	Stable	–
Nc1nnc(-c2cccc(Cl)c2Cl)c(N)n1 [LAMOTRIGINE]	Stable	–
COc1ccc2c(c1)c(CC(=O)O)c(C)n2C(=O)c1ccc(Cl)cc1 [INDOMETHACIN]	Stable	–
CO[C@H](C(=O)[C@@H](O)[C@@H](C)O)[C@@H]1Cc2cc3cc(O[C@H]4C[C@@H](O[C@H]5C[C@@H](O)[C@H](O)[C@@H](C)O5)[C@H](O)[C@@H](C)O4)c(C)c(O)c3c(O)c2C(=O)[C@H]1O[C@H]1C[C@@H](O[C@H]2C[C@@H](O[C@H]3C[C@](C)(O)[C@H](O)[C@@H](C)O3)[C@@H](O)[C@@H](C)O2)[C@H](O)[C@@H](C)O1 [PLICAMYCIN]	Stable	–
CC(C)NCC(O)c1ccc(NS(C)(=O)=O)cc1 (stereo not given) [SOTALOL]	Stable	–
CCCCC[C@H](O)/C=C/[C@H]1[C@H](O)CC(=O)[C@@H]1CCCCCCC(=O)O [ALPROSTADIL]	Stable	–
COc1cc2nc(N3CCN(C(=O)C4CCCO4)CC3)nc(N)c2cc1OC (stereo not given) [TERAZOSIN]	Stable	–
COc1ccc([C@@H]2Sc3ccccc3N(CCN(C)C)C(=O)[C@@H]2OC(C)=O)cc1 [DILTIAZEM]	Stable	–
CCCC1O[C@@H]2C[C@H]3[C@@H]4CCC5=CC(=O)C=C[C@]5(C)[C@H]4[C@@H](O)C[C@]3(C)[C@]2(C(=O)CO)O1 (stereo not given in full) [BUDESONIDE]	Stable	–
